This note sets out measurements from patent publication US20100249121A1, “USE OF TETRAMIC ACID DERIVATIVES FOR C[…]-TR[…]” (priority 2007, published 2010).

Assay type in all cases: in vivo
The test system of assay [1] is Tomato Spotted Wilt Virus (TSWV). The assay can be described thus: Example 4: field plots of tomatoes, tank mix versus single actives, virus infection scored. Particulars: 72 g of a.i./ha, SC 200 on its own, four applications at 7-day intervals, 25 days after the treatment. An excerpt:
The expected activity for a given combination of two active compounds can be calculated according to S. R. Colby, Weeds 15 (1967), 20-22 as follows:
If • X is the degree of control, expressed in % of the untreated control, when using the active compound A at an application rate of m g/ha or in a concentration of m ppm, • Y is the degree of control, expressed in % of the untreated control, when using the active compound B at an application rate of n g/ha or in a concentration of n ppm and • E is the degree of control, expressed in % of the untreated control, when using the active compounds A and B at application rates of m and n g/ha or in a concentration of m and n ppm, then
If the actual degree of control is greater than the calculated degree of control, the control of the combination is superadditive, i.e. a synergistic effect is present. In this case, the degree of control actually observed must be greater than the value for the expected kill rate (E) calculated using the formula given above.
After the desired period of time, the control in % is determined. 100% means that no plants have been infected by viruses; 0% means that all plants have been infected by viruses.
In three replications, plots of a size of 7.5 m^2 with tomatoes of the cultivar “Jumbo” are treated against the virus-transferring vector Bemisia argentifolii using a compressed air-operated sprayer. […]

In assay [2] the test system is Tomato Yellow Leaf Curl Virus (TYLCV), virus-transferring vector Bemisia argentifolii. Nature of the assay: Example 1: field plots of tomatoes treated against the vector, virus infestation scored. Particulars: 72 g of a.i./ha, 200 SC, four applications at 7-day intervals, 25 days after the 4th treatment, TYLCV on tomatoes. As for the experimental part: In three replications, plots of a size of 7.5 m^2 with tomatoes of the cultivar “Jumbo” are treated against the virus-transferring vector Bemisia argentifolii. Application is carried out using a motor-operated knapsack sprayer. The active compound example (I-2) (240 SC) in a tank mix with 0.186% a.i. soya oil Natur'L Oleo (OL 930) and the commercial standard imidacloprid (200 SC) are applied at the stated application rates. Four applications are carried out at intervals of in each case 7 days using a water application rate of in each case 300 l, 300 l, 500 l and 600 l/ha.
Evaluation is carried out 25 days after the 4th treatment by scoring the virus infestation with the Tomato Yellow Leaf Curl Virus (TYLCV) on the plants.
In the control, 11.7 of 15 plants were infected by the TYLCV.

Assay [3] relates to Bean Golden Mosaic Virus (BGMV), virus-transferring vector Bemisia argentifolii. The assay can be described thus: Example 3: field plots of bush beans treated against the vector, virus infestation scored. Particulars: 72 g of a.i./ha, 200 SC, three applications at 7-day intervals, 16 days after the first treatment, BGMV on bush beans. On the procedure:
In three replications, plots of a size of 12 m^2 with bush beans of the cultivar “Carioca” are treated against the virus-transferring vector Bemisia argentifolii. Application is carried out using a pressurized air-operated knapsack sprayer. The active compound example (I-2) (240 SC) in a tank mix with 0.186% a.i. soya oil Natur'L Oleo (OL 930) and the commercial standard imidacloprid (200 SC) are applied at the stated application rates. Three applications are carried out at intervals of in each case 7 days. The water application rate is in each case 300 l/ha.
Evaluation is carried out 16 days after the first treatment by scoring the virus infestation with the Bean Golden Mosaic Virus (BGMV) on the plants.
All 10 plants in the control were infected by the BGMV.

Assay [4] deals with Tomato Yellow Leaf Curl Virus (TYLCV), virus-transferring vector Bemisia argentifolii. The assay can be described thus: Example 2: field plots of tomatoes treated against the vector, virus infestation scored. Particulars: 72 g of a.i./ha, 200 SC, three applications at 7-day intervals, 14 days after the 3rd treatment, TYLCV on tomatoes. As for the experimental part:
In three replications, plots of a size of 7.5 m^2 with tomatoes of the cultivar “Jumbo” are treated against the virus-transferring vector Bemisia argentifolii. Application is carried out using a pressurized air-operated knapsack sprayer. The active compound example (I-2) (240 SC) in a tank mix with 0.186% a.i. soya oil Natur'L Oleo (OL 930) and the commercial standard imidacloprid (200 SC) are applied at the stated application rates. Three applications are carried out at intervals of in each case 7 days. The water application rates are 300 l/ha, 400 l/ha and 600 l/ha.
Evaluation is carried out 14 days after the 3rd treatment by scoring the virus infestation with the Tomato Yellow Leaf Curl Virus (TYLCV) on the plants.
All 18 plants in the control were infected by the TYLCV.

In the case of `O=[N+]([O-])/N=C1\NCCN1Cc1ccc(Cl)nc1` [imidacloprid], the “Degree of control according to Abbott (%) 25 d” value in assay [1] is recorded as 80%; in assay [2] it was 40.0%. For the same compound, the “Degree of control according to Abbott (%) 16 d” value in assay [3] is listed as 60.0%. Besides, the “Degree of control according to Abbott (%) 14 d” value in assay [4] was 33%.
